According to patent US9695155B2, “Herbicidal substituted pyrimidinyloxy benzene compounds” (E. I. DU PONT DE NEMOURS AND COMPANY, priority 2013, dated 2017):

What was measured:
barnyardgrass [1] = assay: Test B flooded paddy test; type: in vivo, Echinochloa crus-galli; conditions: Flood, 250 g ai/ha; 0 to 100 scale where 0 is no effect and 100 is complete control
Outline: (§1)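 2-leaf stage plants; pots flooded to 3 cm, compound added to paddy water, depth maintained. Greenhouse 13–15 d. Visual rating vs untreated controls, 0 (no effect) to 100 (complete control); dash = no result.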

Heteranthera limosa = assay: Test B flooded paddy test; type: in vivo; conditions: Flood, 250 g ai/ha; 0 to 100 scale where 0 is no effect and 100 is complete control
Outline: as §1

waterhemp = assay: Test C postemergence; type: in vivo, Amaranthus rudis; conditions: for Plant response rating (0 to 100), Waterhemp: 16 g ai/ha, 0 is no effect, 100 is complete control; for Waterhemp plant response rating: 31 g ai/ha; for Waterhemp plant response rating / Plant response rating, Waterhemp: scale 0 to 100 (0 no effect, 100 complete control)
Outline: (§2)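 Visual injury score versus untreated controls, 0 = no effect, 100 = complete control, taken 13 to 15 days after treatment in the greenhouse. Pre-emergence pots held loam/sand; post-emergence plants grew in sphagnum peat/vermiculite mix and were sprayed at the 1- to 4-leaf stage.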

velvetleaf = assay: Test A preemergence; type: in vivo, Abutilon theophrasti; conditions: for Velvetleaf plant response rating (0 to 100 scale): 125 g ai/ha; for Velvetleaf plant response rating: 500 g ai/ha, 0 to 100 scale where 0 is no effect and 100 is complete control
Outline: (§3)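 Injury scores run from 0, no effect, to 100, complete control, judged by eye against untreated plants roughly 10 days after treatment. Chemicals carried a surfactant in a non-phytotoxic solvent and went onto loam–sand soil preemergence or onto one- to two-leaf seedlings postemergence.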

sedge, umbrella = assay: Test B flooded paddy test; type: in vivo, Cyperus difformis; conditions: Flood, 250 g ai/ha; 0 to 100 scale where 0 is no effect and 100 is complete control
Outline: as §1

corn = assay: Test C postemergence; type: in vivo, Zea mays; conditions: for Plant response rating (0 to 100), Corn: 16 g ai/ha, 0 is no effect, 100 is complete control; for Corn plant response rating: 31 g ai/ha; for Corn plant response rating / Plant response rating, Corn: scale 0 to 100 (0 no effect, 100 complete control)
Outline: as §2

wheat, winter = assay: Test C postemergence; type: in vivo, Triticum aestivum; conditions: for Plant response rating (0 to 100), Wheat: 16 g ai/ha, 0 is no effect, 100 is complete control; for Wheat plant response rating: 31 g ai/ha; for Wheat plant response rating / Plant response rating, Wheat: scale 0 to 100 (0 no effect, 100 complete control)
Outline: as §2

barnyardgrass [2] = assay: Test C postemergence; type: in vivo, Echinochloa crus-galli; conditions: for Plant response rating (0 to 100), Barnyardgrass: 16 g ai/ha, 0 is no effect, 100 is complete control; for Barnyardgrass plant response rating: 31 g ai/ha, 13 to 15 days; for Barnyardgrass plant response rating / Plant response rating, Barnyardgrass: scale 0 to 100 (0 no effect, 100 complete control)
Outline: as §2

large (Lg) crabgrass = assay: Test C postemergence; type: in vivo, Digitaria sanguinalis; conditions: for Plant response rating (0 to 100), Crabgrass, Large: 16 g ai/ha, 0 is no effect, 100 is complete control; for Crabgrass, Large plant response rating: 31 g ai/ha; for Crabgrass, Large plant response rating / Plant response rating, Crabgrass, Large: scale 0 to 100 (0 no effect, 100 complete control)
Outline: as §2

morningglory = assay: Test A postemergence; type: in vivo, Ipomoea spp.; conditions: 0 to 100 scale where 0 is no effect and 100 is complete control; for Morningglory plant response rating: 125 g ai/ha; for Plant response rating, Morningglory: 500 g ai/ha
Outline: as §3

pigweed [3] = assay: Test A preemergence; type: in vivo, Amaranthus retroflexus; conditions: for Pigweed plant response rating (0 to 100 scale): 125 g ai/ha; for Pigweed plant response rating: 500 g ai/ha, 0 to 100 scale where 0 is no effect and 100 is complete control
Outline: as §3

oilseed rape = assay: Test C postemergence; type: in vivo, Brassica napus; conditions: for Plant response rating (0 to 100), Oilseed Rape: 16 g ai/ha, 0 is no effect, 100 is complete control; for Oilseed Rape plant response rating: 31 g ai/ha; for Oilseed Rape plant response rating / Plant response rating, Oilseed Rape: scale 0 to 100 (0 no effect, 100 complete control)
Outline: as §2

chickweed = assay: Test C postemergence; type: in vivo, Stellaria media; conditions: for Plant response rating (0 to 100), Chickweed: 16 g ai/ha, 0 is no effect, 100 is complete control; for Chickweed plant response rating: 31 g ai/ha; for Chickweed plant response rating / Plant response rating, Chickweed: scale 0 to 100 (0 no effect, 100 complete control)
Outline: as §2

pigweed [4] = assay: Test A postemergence; type: in vivo, Amaranthus retroflexus; conditions: 0 to 100 scale where 0 is no effect and 100 is complete control; for Pigweed plant response rating: 125 g ai/ha; for Plant response rating, Pigweed: 500 g ai/ha
Outline: as §3

johnsongrass = assay: Test C postemergence; type: in vivo, Sorghum halepense; conditions: for Plant response rating (0 to 100), Johnsongrass: 16 g ai/ha, 0 is no effect, 100 is complete control; for Johnsongrass plant response rating: 31 g ai/ha; for Johnsongrass plant response rating / Plant response rating, Johnsongrass: scale 0 to 100 (0 no effect, 100 complete control)
Outline: as §2

[5] = postemergence, visual rating, 13 to 15 days
[6] = 125 g ai/ha, postemergence, visual rating
[7] = Postemergence, 62 g ai/ha, 13 to 15 days

Fc1cnc(Oc2ccccc2-n2cc(C(F)F)cn2)nc1 [Compound 228]
Plant response rating, Barnyardgrass (barnyardgrass [1]): 0 | Plant response rating, Ducksalad (Heteranthera limosa): 75 | Plant response rating (0 to 100), Waterhemp (waterhemp; postemergence): 15 | Waterhemp plant response rating (waterhemp; [5]): 45 | Plant response rating, Waterhemp (waterhemp; [6]): 75 | Plant response rating, Waterhemp (waterhemp; [7]): 60 | Velvetleaf plant response rating (0 to 100 scale) (velvetleaf): 70 | Velvetleaf plant response rating (velvetleaf): 100 | Plant response rating, Sedge, Umbrella (sedge, umbrella): 60 | Plant response rating (0 to 100), Corn (corn; postemergence): 0 | Corn plant response rating (corn; [5]): 0 | Plant response rating, Corn (corn; [6]): 5 | Plant response rating, Corn (corn; [7]): 0 | Plant response rating (0 to 100), Wheat (wheat, winter; postemergence): 0 | Wheat plant response rating (wheat, winter; [5]): 0 | Plant response rating, Wheat (wheat, winter; [6]): 0 | Plant response rating, Wheat (wheat, winter; [7]): 0 | Plant response rating (0 to 100), Barnyardgrass (barnyardgrass [2]; postemergence): 0 | Barnyardgrass plant response rating (barnyardgrass [2]; postemergence, visual rating): 0 | Plant response rating, Barnyardgrass (barnyardgrass [2]; [6]): 5 | Plant response rating, Barnyardgrass (barnyardgrass [2]; Postemergence, 62 g ai/ha): 5 | Plant response rating (0 to 100), Crabgrass, Large (large (Lg) crabgrass; postemergence): 0 | Crabgrass, Large plant response rating (large (Lg) crabgrass; [5]): 5 | Plant response rating, Crabgrass, Large (large (Lg) crabgrass; [6]): 5 | Plant response rating, Crabgrass, Large (large (Lg) crabgrass; [7]): 5 | Morningglory plant response rating (morningglory): 80 | Plant response rating, Morningglory (morningglory): 100 | Pigweed plant response rating (0 to 100 scale) (pigweed [3]): 0 | Pigweed plant response rating (pigweed [3]): 0 | Plant response rating (0 to 100), Oilseed Rape (oilseed rape; postemergence): 40 | Oilseed Rape plant response rating (oilseed rape; [5]): 60 | Plant response rating, Oilseed Rape (oilseed rape; [6]): 85 | Plant response rating, Oilseed Rape (oilseed rape; [7]): 60 | Plant response rating (0 to 100), Chickweed (chickweed; postemergence): 10 | Chickweed plant response rating (chickweed; [5]): 30 | Plant response rating, Chickweed (chickweed; [6]): 50 | Plant response rating, Chickweed (chickweed; [7]): 50 | Pigweed plant response rating (pigweed [4]): 100 | Plant response rating, Pigweed (pigweed [4]): 100 | Plant response rating (0 to 100), Johnsongrass (johnsongrass; postemergence): 5 | Johnsongrass plant response rating (johnsongrass; [5]): 0 | Plant response rating, Johnsongrass (johnsongrass; [6]): 10 | Plant response rating, Johnsongrass (johnsongrass; [7]): 5

FC(F)c1cnn(-c2c(Cl)cccc2Oc2ncc(Cl)cn2)c1 [Compound 192]
Plant response rating, Barnyardgrass (barnyardgrass [1]): 0 | Plant response rating, Ducksalad (Heteranthera limosa): 90 | Plant response rating (0 to 100), Waterhemp (waterhemp; postemergence): 40 | Waterhemp plant response rating (waterhemp; [5]): 50 | Plant response rating, Waterhemp (waterhemp; [6]): 85 | Plant response rating, Waterhemp (waterhemp; [7]): 65 | Velvetleaf plant response rating (0 to 100 scale) (velvetleaf): 90 | Velvetleaf plant response rating (velvetleaf): 100 | Plant response rating, Sedge, Umbrella (sedge, umbrella): 85 | Plant response rating (0 to 100), Corn (corn; postemergence): 0 | Corn plant response rating (corn; [5]): 5 | Plant response rating, Corn (corn; [6]): 5 | Plant response rating, Corn (corn; [7]): 5 | Plant response rating (0 to 100), Wheat (wheat, winter; postemergence): 0 | Wheat plant response rating (wheat, winter; [5]): 0 | Plant response rating, Wheat (wheat, winter; [6]): 5 | Plant response rating, Wheat (wheat, winter; [7]): 5 | Plant response rating (0 to 100), Barnyardgrass (barnyardgrass [2]; postemergence): 5 | Barnyardgrass plant response rating (barnyardgrass [2]; postemergence, visual rating): 10 | Plant response rating, Barnyardgrass (barnyardgrass [2]; [6]): 10 | Plant response rating, Barnyardgrass (barnyardgrass [2]; Postemergence, 62 g ai/ha): 10 | Plant response rating (0 to 100), Crabgrass, Large (large (Lg) crabgrass; postemergence): 5 | Crabgrass, Large plant response rating (large (Lg) crabgrass; [5]): 10 | Plant response rating, Crabgrass, Large (large (Lg) crabgrass; [6]): 5 | Plant response rating, Crabgrass, Large (large (Lg) crabgrass; [7]): 5 | Morningglory plant response rating (morningglory): 80 | Plant response rating, Morningglory (morningglory): 100 | Pigweed plant response rating (0 to 100 scale) (pigweed [3]): 100 | Pigweed plant response rating (pigweed [3]): 100 | Plant response rating (0 to 100), Oilseed Rape (oilseed rape; postemergence): 10 | Oilseed Rape plant response rating (oilseed rape; [5]): 5 | Plant response rating, Oilseed Rape (oilseed rape; [6]): 60 | Plant response rating, Oilseed Rape (oilseed rape; [7]): 60 | Plant response rating (0 to 100), Chickweed (chickweed; postemergence): 45 | Chickweed plant response rating (chickweed; [5]): 50 | Plant response rating, Chickweed (chickweed; [6]): 60 | Plant response rating, Chickweed (chickweed; [7]): 70 | Pigweed plant response rating (pigweed [4]): 100 | Plant response rating, Pigweed (pigweed [4]): 100 | Plant response rating (0 to 100), Johnsongrass (johnsongrass; postemergence): 5 | Johnsongrass plant response rating (johnsongrass; [5]): 10 | Plant response rating, Johnsongrass (johnsongrass; [6]): 10 | Plant response rating, Johnsongrass (johnsongrass; [7]): 5

FC(F)(F)c1cnn(-c2c(Br)cccc2Oc2ncc(Cl)cn2)c1 [Compound 191]
Plant response rating, Barnyardgrass (barnyardgrass [1]): 40 | Plant response rating, Ducksalad (Heteranthera limosa): 95 | Plant response rating (0 to 100), Waterhemp (waterhemp; postemergence): 80 | Waterhemp plant response rating (waterhemp; [5]): 85 | Plant response rating, Waterhemp (waterhemp; [6]): 95 | Plant response rating, Waterhemp (waterhemp; Postemergence, 62 g ai/ha): 95 | Velvetleaf plant response rating (0 to 100 scale) (velvetleaf): 80 | Velvetleaf plant response rating (velvetleaf): 90 | Plant response rating, Sedge, Umbrella (sedge, umbrella): 95 | Plant response rating (0 to 100), Corn (corn; postemergence): 5 | Corn plant response rating (corn; [5]): 5 | Plant response rating, Corn (corn; [6]): 10 | Plant response rating, Corn (corn; Postemergence, 62 g ai/ha): 10 | Plant response rating (0 to 100), Wheat (wheat, winter; postemergence): 0 | Wheat plant response rating (wheat, winter; [5]): 0 | Plant response rating, Wheat (wheat, winter; [6]): 0 | Plant response rating, Wheat (wheat, winter; Postemergence, 62 g ai/ha): 0 | Plant response rating (0 to 100), Barnyardgrass (barnyardgrass [2]; postemergence): 10 | Barnyardgrass plant response rating (barnyardgrass [2]; postemergence, visual rating): 10 | Plant response rating, Barnyardgrass (barnyardgrass [2]; [6]): 15 | Plant response rating, Barnyardgrass (barnyardgrass [2]; Postemergence, 62 g ai/ha): 15 | Plant response rating (0 to 100), Crabgrass, Large (large (Lg) crabgrass; postemergence): 5 | Crabgrass, Large plant response rating (large (Lg) crabgrass; [5]): 5 | Plant response rating, Crabgrass, Large (large (Lg) crabgrass; [6]): 10 | Plant response rating, Crabgrass, Large (large (Lg) crabgrass; Postemergence, 62 g ai/ha): 5 | Morningglory plant response rating (morningglory): 80 | Plant response rating, Morningglory (morningglory): 100 | Pigweed plant response rating (0 to 100 scale) (pigweed [3]): 100 | Pigweed plant response rating (pigweed [3]): 100 | Plant response rating (0 to 100), Oilseed Rape (oilseed rape; postemergence): 10 | Oilseed Rape plant response rating (oilseed rape; [5]): 45 | Plant response rating, Oilseed Rape (oilseed rape; [6]): 50 | Plant response rating, Oilseed Rape (oilseed rape; Postemergence, 62 g ai/ha): 50 | Plant response rating (0 to 100), Chickweed (chickweed; postemergence): 10 | Chickweed plant response rating (chickweed; [5]): 80 | Plant response rating, Chickweed (chickweed; [6]): 98 | Plant response rating, Chickweed (chickweed; Postemergence, 62 g ai/ha): 80 | Pigweed plant response rating (pigweed [4]): 100 | Plant response rating, Pigweed (pigweed [4]): 100 | Plant response rating (0 to 100), Johnsongrass (johnsongrass; postemergence): 30 | Johnsongrass plant response rating (johnsongrass; [5]): 10 | Plant response rating, Johnsongrass (johnsongrass; [6]): 10 | Plant response rating, Johnsongrass (johnsongrass; Postemergence, 62 g ai/ha): 15
